Values after ≈ are worked out from the molar mass of the structure shown. Active and inactive are the calls of the source. The rule behind the calls is not given here.
Columns and labels:
CYP2C9 = CYP2C9 (Homo sapiens, UniProt P11712); assay: Inhibition of CYP2C9 at 10 uM; format: ADME
[1] = Octanol-buffer partition coefficient, log D of the compound after 30 mins by shake flask method at pH 7.4; conditions: octanol/buffer
Cavia porcellus = organism: Cavia porcellus; assay: Toxicity against guinea pig by monophasic action potential assay; format: organism-based; conditions: in vivo
[2] = Fraction unbound in mouse plasma after 18 to 19 hrs by equilibrium dialysis; format: ADME, cell-free
[3] = Volume of distribution at steady state in mouse at 1 to 3 mg/kg; format: ADME, organism-based; design: dose 1-3 mg/kg; conditions: in vivo, read-out: Vdss
[4] = Metabolic stability in dog hepatocytes assessed as compound remaining; format: ADME, cell-based, Canis lupus familiaris, Hepatocyte
L5178Y = assay: Mutagenicity against mouse L5178Y cells by mouse lymphoma assay; format: toxicity, cell-based
CYP3A4 = CYP3A4 (Homo sapiens, UniProt P08684); assay: Inhibition of CYP3A4 at 10 uM; format: ADME
[5] = Volume of distribution at steady state in dog at 1 to 3 mg/kg; format: ADME, organism-based, Canis lupus familiaris; design: dose 1-3 mg/kg; conditions: in vivo, read-out: Vdss
[6] = target: 11-beta-hydroxysteroid dehydrogenase type 2 (Homo sapiens, UniProt P80365); assay: Inhibition of recombinant 11betaHSD2 using cortisol as substrate after 40 mins by fluorescence spectrophotometry
[7] = Fraction unbound in rat plasma after 18 to 19 hrs by equilibrium dialysis; format: ADME, cell-free
[8] = Aqueous solubility of the compound after 24 hrs by LC-UV analysis at pH 7.4; format: physicochemical; conditions: aqueous medium
[9] = target: 11-beta-hydroxysteroid dehydrogenase 1 (Mus musculus, UniProt P50172); assay: Inhibition of N-terminal His6-tagged full length mouse 11betaHSD1 expressed in baculovirus infected cells using cortisone as substrate after 25 mins by HTRF assay
[10] = Half life in dog at 1 to 3 mg/kg, iv; format: ADME, organism-based, Canis lupus familiaris; design: dose 1-3 mg/kg, route intravenous; conditions: in vivo
[11] = Half life in mouse at 1 to 3 mg/kg, po; format: ADME, organism-based; design: dose 1-3 mg/kg, route oral; conditions: in vivo
[12] = Intrinsic clearance in rat hepatocytes assessed per 10^6 cells
Hepatocyte [13] = assay: Metabolic stability in rat hepatocytes assessed as compound remaining; format: ADME, cell-based
Mus musculus [14] = assay: Ex-vivo inhibition of 11betaHSD1 in C57Bl6J mouse epididymal adipose tissue using [3H]cortisone as substrate at 50 mg/kg, po after 1 hr by flow scintillation analysis; format: functional
[15] = Plasma clearance in dog at 1 to 3 mg/kg; format: ADME, organism-based, Canis lupus familiaris; design: dose 1-3 mg/kg
[16] = Oral bioavailability in rat at 1 to 3 mg/kg; format: ADME, organism-based; conditions: in vivo
Plasma = assay: Drug uptake in rat plasma assessed as covalent binding measured at 40 uCi/kg, po at 24 hrs; format: ADME, organism-based; conditions: in vivo
Mus musculus [17] = assay: Ex-vivo inhibition of 11betaHSD1 in po dosed C57Bl6J mouse epididymal adipose tissue using [3H]cortisone as substrate after 1 hr by flow scintillation analysis; format: functional, organism-based
Liver [18] = assay: Drug uptake in rat liver assessed as covalent binding measured per mg protein at 40 uCi/kg, po at 24 hrs; format: ADME, organism-based; conditions: in vivo
[19] = Apparent permeability from apical to basal side of MDCK cells at 10 uM; format: ADME, cell-based, Canis lupus familiaris; conditions: dog
[20] = Half life in mouse at 1 to 3 mg/kg, iv; format: ADME, organism-based; design: dose 1-3 mg/kg, route intravenous; conditions: in vivo
[21] = Oral bioavailability in dog at 1 to 3 mg/kg; format: ADME, organism-based, Canis lupus familiaris; conditions: in vivo
CYP2D6 = CYP2D6 (Homo sapiens, UniProt P10635); assay: Inhibition of CYP2D6 at 10 uM; format: ADME
[22] = target: Glucocorticoid receptor (Homo sapiens) (UniProt P04150); assay: Activity at glucocorticoid receptor
Salmonella typhimurium = assay: Mutagenicity against Salmonella typhimurium by Ames test; format: toxicity, organism-based; conditions: salmonella enterica subsp. enterica serovar typhimurium
[23] = target: 11-beta-hydroxysteroid dehydrogenase 1 (Rattus norvegicus, UniProt P16232); assay: Inhibition of N-terminal His6-tagged full length rat 11betaHSD1 expressed in baculovirus infected cells using cortisone as substrate after 25 mins by HTRF assay
[24] = Apparent permeability from basal to apical side of MDCK cells at 10 uM; format: ADME, cell-based, Canis lupus familiaris; conditions: dog
[25] = target: 17-beta-hydroxysteroid dehydrogenase type 1 (Homo sapiens, UniProt P14061); assay: Inhibition of recombinant 17betaHSD1 using [3H]estrone as substrate after 20 mins by flow scintillation analysis
[26] = Half life in dog at 1 to 3 mg/kg, po; format: ADME, organism-based, Canis lupus familiaris; design: dose 1-3 mg/kg, route oral; conditions: in vivo
[27] = Volume of distribution at steady state in rat at 1 to 3 mg/kg; format: ADME, organism-based; design: dose 1-3 mg/kg; conditions: in vivo, read-out: Vdss
[28] = Half life in rat at 1 to 3 mg/kg, iv; format: ADME, organism-based; design: dose 1-3 mg/kg, route intravenous; conditions: in vivo
[29] = Plasma clearance in mouse at 1 to 3 mg/kg; format: ADME, organism-based; design: dose 1-3 mg/kg
Mus musculus [30] = assay: Ex-vivo inhibition of 11betaHSD1 in C57Bl6J mouse epididymal adipose tissue using [3H]cortisone as substrate at 1500 mg/kg, po after 1 hr by flow scintillation analysis; format: functional
Liver [31] = assay: Drug uptake in rat liver assessed as covalent binding measured per mg protein at 40 uCi/kg, po at 2 hrs; format: ADME, organism-based; conditions: in vivo
Hepatocyte [32] = assay: Metabolic stability in human hepatocytes assessed as compound remaining; format: ADME, cell-based
[33] = Inhibition of N-terminal His6-tagged full length cynomolgus monkey 11betaHSD1 expressed in baculovirus infected cells using cortisone as substrate after 25 mins by HTRF assay; design: species or system Macaca fascicularis
[34] = Oral bioavailability in rat; format: ADME, organism-based; conditions: in vivo
CYP2C19 = CYP2C19 (Homo sapiens, UniProt P33261); assay: Inhibition of CYP2C19 at 10 uM; format: ADME
[35] = target: Mineralocorticoid receptor (Homo sapiens) (UniProt P08235); assay: Activity at mineralocorticoid receptor
[36] = Fraction unbound in human plasma after 18 to 19 hrs by equilibrium dialysis; format: ADME, cell-free
[37] = target: 11-beta-hydroxysteroid dehydrogenase type 1 (Canis lupus familiaris, UniProt Q5XX84); assay: Inhibition of N-terminal His6-tagged full length dog 11betaHSD1 expressed in baculovirus infected cells using cortisone as substrate after 25 mins by HTRF assay
[38] = Fraction unbound in dog plasma after 18 to 19 hrs by equilibrium dialysis; format: ADME, cell-free, Canis lupus familiaris
[39] = Half life in rat at 1 to 3 mg/kg, po; format: ADME, organism-based; design: dose 1-3 mg/kg, route oral; conditions: in vivo
[40] = Induction in cytochrome P450 in rat up to 1 month; format: ADME
[41] = Oral bioavailability in mouse at 1 to 3 mg/kg; format: ADME, organism-based; conditions: in vivo
[42] = Plasma clearance in rat at 1 to 3 mg/kg; format: ADME, organism-based; design: dose 1-3 mg/kg
in vivo = conditions: rat
[43] = target: 17-beta-hydroxysteroid dehydrogenase type 3 (Homo sapiens, UniProt P37058); assay: Inhibition of recombinant 17betaHSD3 using [3H]androstenedione as substrate after 90 mins by flow scintillation analysis
[44] = target: Type-2 angiotensin II receptor (Homo sapiens) (UniProt P50052); assay: Activity at AT2 receptor
[45] = target: Gastrin/cholecystokinin type B receptor (Homo sapiens) (UniProt P32239); assay: Activity at CCK2 receptor
CYP1A2 = CYP1A2 (Homo sapiens, UniProt P05177); assay: Inhibition of CYP1A2 at 10 uM; format: ADME
Sequence of CYP1A2 (P05177 whole entry): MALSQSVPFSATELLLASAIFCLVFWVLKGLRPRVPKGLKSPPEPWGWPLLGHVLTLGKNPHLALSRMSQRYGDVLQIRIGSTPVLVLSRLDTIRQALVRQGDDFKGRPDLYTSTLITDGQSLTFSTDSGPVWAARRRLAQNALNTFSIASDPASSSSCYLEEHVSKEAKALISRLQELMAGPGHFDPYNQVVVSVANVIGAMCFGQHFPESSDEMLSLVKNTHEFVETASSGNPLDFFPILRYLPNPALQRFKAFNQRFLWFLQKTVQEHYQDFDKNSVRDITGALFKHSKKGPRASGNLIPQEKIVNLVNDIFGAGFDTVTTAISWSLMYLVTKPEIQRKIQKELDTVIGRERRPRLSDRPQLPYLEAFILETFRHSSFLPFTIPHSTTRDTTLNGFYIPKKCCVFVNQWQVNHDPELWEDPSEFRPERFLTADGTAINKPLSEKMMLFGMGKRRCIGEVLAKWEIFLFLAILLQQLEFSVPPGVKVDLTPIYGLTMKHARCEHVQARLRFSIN

Sequence of Mineralocorticoid receptor (Homo sapiens) (P08235 whole entry): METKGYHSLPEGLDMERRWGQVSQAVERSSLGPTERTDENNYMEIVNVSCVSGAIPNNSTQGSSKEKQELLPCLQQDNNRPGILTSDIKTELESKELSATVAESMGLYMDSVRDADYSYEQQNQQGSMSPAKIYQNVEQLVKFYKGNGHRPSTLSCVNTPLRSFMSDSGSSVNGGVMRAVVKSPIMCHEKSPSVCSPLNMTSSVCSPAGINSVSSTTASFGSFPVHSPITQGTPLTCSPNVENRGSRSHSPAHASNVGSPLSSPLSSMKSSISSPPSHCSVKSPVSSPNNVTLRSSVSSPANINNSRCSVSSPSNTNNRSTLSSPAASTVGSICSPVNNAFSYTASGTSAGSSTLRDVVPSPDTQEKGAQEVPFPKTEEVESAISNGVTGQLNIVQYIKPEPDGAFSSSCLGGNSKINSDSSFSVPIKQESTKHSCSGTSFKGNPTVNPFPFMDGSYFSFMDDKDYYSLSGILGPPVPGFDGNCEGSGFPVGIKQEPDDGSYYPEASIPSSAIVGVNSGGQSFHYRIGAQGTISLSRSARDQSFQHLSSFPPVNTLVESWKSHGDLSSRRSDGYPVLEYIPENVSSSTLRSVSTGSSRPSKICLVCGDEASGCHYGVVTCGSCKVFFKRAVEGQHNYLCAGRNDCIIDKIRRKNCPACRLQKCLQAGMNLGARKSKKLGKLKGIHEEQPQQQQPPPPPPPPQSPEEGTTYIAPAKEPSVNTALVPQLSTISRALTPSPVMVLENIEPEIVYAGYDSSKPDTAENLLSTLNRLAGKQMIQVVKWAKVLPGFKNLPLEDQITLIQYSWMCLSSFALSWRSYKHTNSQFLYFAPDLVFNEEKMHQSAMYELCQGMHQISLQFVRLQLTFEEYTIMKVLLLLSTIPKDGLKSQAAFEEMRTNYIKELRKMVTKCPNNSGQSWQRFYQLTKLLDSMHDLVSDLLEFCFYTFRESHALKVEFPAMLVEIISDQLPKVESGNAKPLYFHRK
Sequence of CYP2C9 (P11712 whole entry): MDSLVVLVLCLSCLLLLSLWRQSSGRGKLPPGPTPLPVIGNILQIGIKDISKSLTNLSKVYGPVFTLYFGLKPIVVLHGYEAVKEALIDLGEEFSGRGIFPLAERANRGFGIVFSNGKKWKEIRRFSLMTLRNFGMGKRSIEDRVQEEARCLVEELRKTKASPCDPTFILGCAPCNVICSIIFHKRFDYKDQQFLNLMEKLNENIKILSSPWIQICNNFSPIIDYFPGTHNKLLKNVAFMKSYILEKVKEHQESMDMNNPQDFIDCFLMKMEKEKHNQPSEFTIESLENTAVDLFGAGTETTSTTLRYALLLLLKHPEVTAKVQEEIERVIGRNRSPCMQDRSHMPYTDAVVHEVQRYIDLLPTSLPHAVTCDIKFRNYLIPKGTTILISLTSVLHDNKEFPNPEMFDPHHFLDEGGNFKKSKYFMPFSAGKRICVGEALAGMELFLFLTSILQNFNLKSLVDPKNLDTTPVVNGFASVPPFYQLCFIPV
Sequence of Glucocorticoid receptor (Homo sapiens) (P04150 whole entry): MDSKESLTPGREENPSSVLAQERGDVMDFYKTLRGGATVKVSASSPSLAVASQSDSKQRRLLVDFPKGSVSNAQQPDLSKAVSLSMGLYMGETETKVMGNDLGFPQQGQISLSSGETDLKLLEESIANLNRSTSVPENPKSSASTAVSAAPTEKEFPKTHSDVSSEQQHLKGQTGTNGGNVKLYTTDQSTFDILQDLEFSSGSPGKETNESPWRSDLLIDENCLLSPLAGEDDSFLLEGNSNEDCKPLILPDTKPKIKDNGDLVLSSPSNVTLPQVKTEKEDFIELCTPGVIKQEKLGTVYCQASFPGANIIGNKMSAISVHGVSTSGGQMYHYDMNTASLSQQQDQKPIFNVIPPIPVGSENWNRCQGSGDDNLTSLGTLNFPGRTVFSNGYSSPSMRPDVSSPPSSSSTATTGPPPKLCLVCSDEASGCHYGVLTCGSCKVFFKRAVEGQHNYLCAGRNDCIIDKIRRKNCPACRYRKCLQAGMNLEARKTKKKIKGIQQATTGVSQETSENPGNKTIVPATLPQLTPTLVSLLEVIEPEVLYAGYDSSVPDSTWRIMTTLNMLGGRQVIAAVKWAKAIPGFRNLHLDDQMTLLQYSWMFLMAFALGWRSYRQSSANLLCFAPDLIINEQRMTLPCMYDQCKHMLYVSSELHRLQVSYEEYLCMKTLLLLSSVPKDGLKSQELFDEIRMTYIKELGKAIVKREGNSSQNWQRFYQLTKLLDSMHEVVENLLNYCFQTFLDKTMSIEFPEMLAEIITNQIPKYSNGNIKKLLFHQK
Sequence of CYP2C19 (P33261 whole entry): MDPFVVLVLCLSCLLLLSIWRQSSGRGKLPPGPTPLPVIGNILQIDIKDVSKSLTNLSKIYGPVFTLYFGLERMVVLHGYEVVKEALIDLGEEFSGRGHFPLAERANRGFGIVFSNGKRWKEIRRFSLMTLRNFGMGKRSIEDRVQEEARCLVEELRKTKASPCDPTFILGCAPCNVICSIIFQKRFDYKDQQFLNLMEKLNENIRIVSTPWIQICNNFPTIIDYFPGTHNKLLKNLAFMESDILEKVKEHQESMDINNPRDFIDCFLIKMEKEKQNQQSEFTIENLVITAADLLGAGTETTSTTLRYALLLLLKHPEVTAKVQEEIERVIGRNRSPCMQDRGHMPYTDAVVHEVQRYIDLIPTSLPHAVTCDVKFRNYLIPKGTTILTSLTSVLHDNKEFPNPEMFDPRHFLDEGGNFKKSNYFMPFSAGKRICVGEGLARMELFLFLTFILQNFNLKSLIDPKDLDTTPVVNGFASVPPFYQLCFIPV
Sequence of 11-beta-hydroxysteroid dehydrogenase 1 (Mus musculus, UniProt P50172) (P50172 whole entry): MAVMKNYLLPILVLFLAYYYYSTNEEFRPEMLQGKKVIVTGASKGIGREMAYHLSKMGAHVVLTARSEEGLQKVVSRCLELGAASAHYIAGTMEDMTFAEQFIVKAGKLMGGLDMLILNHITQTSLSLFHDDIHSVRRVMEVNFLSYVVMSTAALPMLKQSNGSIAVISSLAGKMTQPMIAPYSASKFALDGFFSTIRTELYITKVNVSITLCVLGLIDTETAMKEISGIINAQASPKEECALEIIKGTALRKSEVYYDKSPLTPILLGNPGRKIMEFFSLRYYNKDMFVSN
Sequence of 11-beta-hydroxysteroid dehydrogenase type 1 (Q5XX84 whole entry): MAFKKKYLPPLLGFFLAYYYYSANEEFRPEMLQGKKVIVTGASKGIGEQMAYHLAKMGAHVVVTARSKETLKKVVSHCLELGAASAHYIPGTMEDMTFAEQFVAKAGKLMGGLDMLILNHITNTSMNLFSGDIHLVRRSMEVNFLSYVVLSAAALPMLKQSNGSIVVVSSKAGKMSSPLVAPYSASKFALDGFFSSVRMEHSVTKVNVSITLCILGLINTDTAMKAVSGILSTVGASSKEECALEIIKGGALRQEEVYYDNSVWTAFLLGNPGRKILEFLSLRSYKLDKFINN
Sequence of 11-beta-hydroxysteroid dehydrogenase type 2 (P80365 whole entry): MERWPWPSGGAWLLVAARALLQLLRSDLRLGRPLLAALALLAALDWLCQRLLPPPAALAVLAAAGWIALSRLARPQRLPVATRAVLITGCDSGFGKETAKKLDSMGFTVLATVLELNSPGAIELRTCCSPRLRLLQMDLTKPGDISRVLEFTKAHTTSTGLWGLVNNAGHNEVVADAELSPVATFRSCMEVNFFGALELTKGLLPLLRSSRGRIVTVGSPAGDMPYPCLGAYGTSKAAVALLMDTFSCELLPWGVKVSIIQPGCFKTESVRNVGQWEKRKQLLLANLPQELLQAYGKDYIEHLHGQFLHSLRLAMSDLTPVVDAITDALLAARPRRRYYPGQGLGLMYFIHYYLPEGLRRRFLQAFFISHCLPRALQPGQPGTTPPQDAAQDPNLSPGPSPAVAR
Sequence of 17-beta-hydroxysteroid dehydrogenase type 1 (P14061 whole entry): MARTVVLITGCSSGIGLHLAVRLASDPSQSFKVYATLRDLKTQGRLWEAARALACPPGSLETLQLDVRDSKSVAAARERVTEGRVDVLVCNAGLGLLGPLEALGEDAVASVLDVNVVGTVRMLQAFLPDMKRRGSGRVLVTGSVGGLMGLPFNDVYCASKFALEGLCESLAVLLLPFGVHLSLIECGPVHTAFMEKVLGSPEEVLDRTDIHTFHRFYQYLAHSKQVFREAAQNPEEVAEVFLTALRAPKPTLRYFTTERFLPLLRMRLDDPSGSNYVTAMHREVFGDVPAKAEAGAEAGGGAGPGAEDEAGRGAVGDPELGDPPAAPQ
Sequence of Type-2 angiotensin II receptor (Homo sapiens) (P50052 whole entry): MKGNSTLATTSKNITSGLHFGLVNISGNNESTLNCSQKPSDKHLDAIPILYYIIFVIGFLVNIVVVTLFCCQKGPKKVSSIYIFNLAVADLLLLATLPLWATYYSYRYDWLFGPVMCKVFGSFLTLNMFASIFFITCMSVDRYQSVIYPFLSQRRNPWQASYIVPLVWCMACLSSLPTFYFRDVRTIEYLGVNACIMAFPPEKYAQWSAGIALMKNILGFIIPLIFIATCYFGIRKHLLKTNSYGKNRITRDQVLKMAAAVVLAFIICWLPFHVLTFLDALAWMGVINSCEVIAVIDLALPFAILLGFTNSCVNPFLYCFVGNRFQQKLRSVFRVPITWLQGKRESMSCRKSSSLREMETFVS

## CCCSc1nc(N2CCC[C@@H](CC(=O)O)C2)ccc1C(=O)NC1CCCCC1 [AZD-4017]
CYP2C9
  inhibition at 10 µM: < 25%
[1]
  logD at 0.5 h: 2.2
Cavia porcellus
  Activity: Non-toxic
[2]
  fraction unbound: 0.029
[3]
  Vd: 4.2 L/kg
[4]
  Stability: 34%
L5178Y
  Activity: Non-toxic
CYP3A4
  inhibition at 10 µM: < 25%
[5]
  Vd: 0.9 L/kg
[6]
  IC50: > 30 µM
[7]
  fraction unbound: 0.017
[8]
  solubility at 24 h: 144 µM (≈ 60.4 µg/mL)
[9]
  IC50: 0.75 µM
[10]
  half-life: 6.2 h
[11]
  half-life: 3.2 h
[12]
  hepatocyte CLint: < 2 µL/min/1e6 cells
Hepatocyte [13]
  Stability: 66%
Mus musculus [14]
  inhibition in vivo at 50 mg/kg: 50%
[15]
  clearance: 7 mL/min/kg
[16]
  bioavailability: > 100%
Plasma
  Drug uptake: Not Active
Mus musculus [17]
  inhibition: Dose-dependent effect
Liver [18]
  Drug uptake: Not Active
[19]
  Papp A→B at 10 µM: 29 ×10⁻⁶ cm/s
[20]
  half-life: 4.2 h
[21]
  bioavailability: 60%
CYP2D6
  inhibition at 10 µM: < 25%
[22]
  Activity: inactive
Salmonella typhimurium
  Activity: Non-toxic
[23]
  IC50: 4.06 µM
[24]
  Papp B→A at 10 µM: 22 ×10⁻⁶ cm/s
[25]
  IC50: > 30 µM
[26]
  half-life: 4.9 h
[27]
  Vd: 2.6 L/kg
[28]
  half-life: 4.4 h
[29]
  clearance: 16 mL/min/kg
Mus musculus [30]
  Imax: 70%
Liver [31]
  Drug uptake: < 25 pmol
Hepatocyte [32]
  Stability: 93%
[33]
  IC50: 0.029 µM
[34]
  bioavailability: > 100%
CYP2C19
  inhibition at 10 µM: < 25%
[35]
  Activity: inactive
[36]
  fraction unbound: 0.008
[37]
  IC50: 3.77 µM
[38]
  fraction unbound: 0.023
[39]
  half-life: 4.7 h
[40]
  Activity: Non-toxic
[41]
  bioavailability: > 100%
[42]
  clearance: 9 mL/min/kg
In vivo
  clearance: 9 mL/min/kg
[43]
  IC50: > 30 µM
[44]
  Activity: Active
[45]
  Activity: Active
CYP1A2
  inhibition at 10 µM: < 25%
